Test results published in patent publication US8455240B2, “Use of thermophilic sulphate-reducing archaea for the implementation of a process for the degradation of hydrocarbons” (Institut de Recherche pour le Development (I.R.D.), priority 2005, dated 2013).
Several values for one entry are separate records, joined by “and”; a condition that tells them apart may be missing. Identical values can stand only once.

Key:
strain L-3 [1] = assay: Sources of carbon and energy used by the strain L-3; format: cell-based, Archaeoglobus fulgidus CNCM I-3465 (strain L-3); details: for OD 580 nm Final / OD 580 nm Initial / H2S (480 nm): thiosulphate as electron acceptor; for H2S (480 nm): unit from b126
Description: (§1) Experimentally, 4 ml of Cord-Ruwish reagent comprising 50 mmol/l of HCl and 5 mmol/l of CuSO4 are added to 0.1 ml of sample. Copper sulphate (CuSO4) by reacting with hydrogen sulphide (H2S), forms a copper sulphide precipitate (CuS) after the reaction: CuSO4+H2S→CuS+H2SO4
(§2) According to this method, the CuS is assayed by spectrophotometry at 480 nm. The readings are carried out against a blank constituted by 4 ml of Cord-Ruwish reagent.
(§3) The analysis and quantification of the metabolites are carried out by HPLC by measuring the disappearance of the substrate and the appearance of different metabolism products.
The study of the growth of the strain L-3 in the presence of different sources of carbon and energy was carried out with thiosulphate as an electron acceptor. The monitoring was carried out by estimation of the cell biomass (OD 580 nm), by assay of the sulphide production (Cord-Ruwish). The results were confirmed by HPLC analyses, and completed in certain cases by a CO2 assay.

Archaeoglobus fulgidus = assay: Screening for hydrocarbon degradation, A. fulgidus (sulphide production, Cord-Ruwish); format: cell-based; details: for sulphide production (OD 480) 0 d: aromatics solubilized in HMN; for ΔS tf-ti: final minus initial sulphide
Description: as §1, §2
(§4) The study of the hydrocarbon degradation abilities is an experiment which requires a particularly long incubation. Thus, it was carried out in Bellco tubes sealed with thick rubber stoppers.
(§5) For these experiments, tubes containing 10 ml of culture medium without substrate, are 10% inoculated, then the hydrocarbon is introduced by injection through the stopper.
(§6) The hydrocarbons chosen are model molecules belonging to the different classes of hydrocarbons, namely: • hexadecane (CH3(CH2)14CH3, C16), a saturated linear aliphatic hydrocarbon; • hexadecene (CH3(CH2)13CHCH2, C16:1), an unsaturated linear aliphatic hydrocarbon of biogenic origin; • dibenzothiophene (DBT, C12H8S), a sulphur-containing aromatic hydrocarbon.
(§7) The aliphatic hydrocarbons (C16; C16:1) are added to the corresponding tubes, at a rate of 0.04 ml/10 ml of culture medium. The aromatic hydrocarbons (DBT) are solubilized in 2,2,4,4,6,8,8-heptamethylnonane (HMN, C16H34) at a rate of 20 mg/ml of HMN, and 0.75 ml of this solution is injected into 10 ml of culture medium.
(§8) 3 tubes were produced for each test and control. The growth of the strains was monitored indirectly by the production of sulphide.
(§9) A subculture was carried out starting from the preceding experiment on naphthalene, DBT solubilized as previously in HMN, and on HMN alone, for the two strains studied.

strain L-3 [2] = assay: Screening for hydrocarbon degradation, strain L-3 (sulphide production, Cord-Ruwish); format: cell-based, Archaeoglobus fulgidus CNCM I-3465 (strain L-3); details: for sulphide production (OD 480) 0 d: aromatics solubilized in HMN
Description: as §1, §2, §4, §5, §6, §7, §8, §9

[3] = system: Archaeoglobus fulgidus (DSM 4304); assay: Degradation of different substrates by A. fulgidus as a function of the electron acceptor; format: cell-based; details: for total H2S: unit from b116; for ability of Archaeoglobus fulgidus to oxidize the substrate: thiosulphate or sulphate as electron acceptor
Description: as §1, §2, §3
(§10) The study of the degradation abilities of different substrates of the strain L-3 was based on a comparison with the collection strain, Archaeoglobus fulgidus (DSM 4304). The degradation of the substrates, by the two strains was monitored by a measurement of the cell biomass at 580 nm, a sulphide assay produced according to the Cord-Ruwish method, a study of the degradation metabolites by HPLC, completed by a CO2 assay with a GPC-Katharometer.
(§11) Two series of tests were prepared, one with thiosulphate, the other with sulphate as an electron acceptor.

strain L-3 [4] = assay: Degradation of different substrates by the strain L-3 as a function of the electron acceptor; format: cell-based, Archaeoglobus fulgidus CNCM I-3465 (strain L-3); parameters: total H2S: unit not given here; details: for ability of the strain L-3 to degrade the substrate: thiosulphate or sulphate as electron acceptor
Description: as §1, §2, §3, §10, §11

A. fulgidus = assay: Subculture on hydrocarbons, A. fulgidus (sulphide production); format: cell-based, Archaeoglobus fulgidus
Description: as §1, §2, §9
(§12) For this subculture, apart from the tests containing the hydrocarbon (DBT, naphthalene (Naph), […]), and seeded with the previously chosen inoculum, abiotic controls (negative controls) containing the substrate (hydrocarbon) but not inoculated were produced for the purpose of quantifying the sulphide production which could be due to chemical reactions between the different constituents of the medium. In these controls there was no development in the concentration of sulphide over a period of 20 days (Table 4).

strain L-3 [5] = assay: Subculture on hydrocarbons, strain L-3 (sulphide production); format: cell-based, Archaeoglobus fulgidus CNCM I-3465 (strain L-3)
Description: as §1, §2, §9, §12

[6] = thiosulphate as electron acceptor
[7] = choice of the inoculum for the subculture, tubes of the screening

`CC(=O)O` [Acetate] was tested, and the “OD 580 nm Final” value (strain L-3 [1]) was 0.0904 and 0.0812, the “OD 580 nm Initial” value (strain L-3 [1]) was 0.0671 and 0.0771 and the “H2S (480 nm)” value (strain L-3 [1]) was 0.4 mM and 0.3 mM.

`CCCCCCCCCCCCCCCC` [C16, hexadecane] was tested, and the “sulphide production (OD 480) 0 d” value (Archaeoglobus fulgidus) was 0.7 mM and 0.8 mM and 0.9 mM, the “sulphide production (OD 480) 70 d” value (Archaeoglobus fulgidus) was 1 mM and 0.5 mM and 0.8 mM and the “sulphide production (OD 480) 0 d” value (strain L-3 [2]) was 0.6 mM and 0.5 mM and 0.9 mM.

In the case of `O=CO` [Formate], the “final OD 580” value ([3]; sulphate as electron acceptor) is reported as 0.1 and 0.1157, the “initial OD 580” value ([3]; sulphate as electron acceptor) is reported as 0.0805 and 0.0853 and the “total H2S” value ([3]; sulphate as electron acceptor) is reported as 3.6 mM and 5 mM. For the same compound, the “final OD 580” value [3, 6] was 0.1218 and 0.1208, the “initial OD 580” value [3, 6] was 0.1107 and 0.1183 and the “total H2S” value [3, 6] was 5.8 mM and 7.4 mM. The “ability of Archaeoglobus fulgidus to oxidize the substrate” value [3] was “capable of oxidizing”, the “final OD 580” value (strain L-3 [4]; sulphate as electron acceptor) was 0.0711 and 0.064 and the “initial OD 580” value (strain L-3 [4]; sulphate as electron acceptor) was 0.0585 and 0.0634. For the same compound, the “total H2S” value (strain L-3 [4]; sulphate as electron acceptor) was 2.5 and 5, the “final OD 580” value (strain L-3 [4]; [6]) was 0.1048 and 0.1186 and the “initial OD 580” value (strain L-3 [4]; [6]) was 0.1003 and 0.1241. The “total H2S” value (strain L-3 [4]; [6]) was 3.6 and 2.8, the “ability of the strain L-3 to degrade the substrate” value (strain L-3 [4]) was “does not develop” and the “OD 580 nm Final” value (strain L-3 [1]) was 0.0672 and 0.0759. For the same compound, the “OD 580 nm Initial” value (strain L-3 [1]) was 0.0765 and 0.0875 and the “H2S (480 nm)” value (strain L-3 [1]) was 0.2 mM and 0.4 mM.

In the case of `O=C(CO)[C@@H](O)[C@H](O)[C@H](O)CO` [Fructose, fructose], the “HPLC analyses, initial quantity of the substrate” value (strain L-3 [1]; no increase in biomass or sulphide, explained by isomerization at high temperature) is reported as “reduction in the initial quantity of the substrate”, the “OD 580 nm Final” value (strain L-3 [1]) is reported as 0.1003 and 0.0893 and the “OD 580 nm Initial” value (strain L-3 [1]) is reported as 0.0663 and 0.0818. The “H2S (480 nm)” value (strain L-3 [1]) was 0.3 mM.

In the case of `O=C(O)/C=C/C(=O)O` [Fumarate], the “final OD 580” value ([3]; sulphate as electron acceptor) is reported as 0.1122 and 0.14, the “initial OD 580” value ([3]; sulphate as electron acceptor) is reported as 0.0759 and 0.085 and the “total H2S” value ([3]; sulphate as electron acceptor) is reported as 2.4 mM and 3.1 mM. For the same compound, the “total H2S” value ([3]; sulphate as electron acceptor, listed as fumarate) was ≤ 3.1 mM, the “final OD 580” value [3, 6] was 0.1399 and 0.1535 and the “initial OD 580” value [3, 6] was 0.1085 and 0.117. The “total H2S” value [3, 6] was 5.1 mM and 6.5 mM, the “total H2S” value ([3]; thiosulphate as electron acceptor, listed as fumarate) was 6.5 mM and the “ability of Archaeoglobus fulgidus to oxidize the substrate” value [3] was “capable of oxidizing”. The “final OD 580” value (strain L-3 [4]; sulphate as electron acceptor) was 0.1085 and 0.0899, the “initial OD 580” value (strain L-3 [4]; sulphate as electron acceptor) was 0.0606 and 0.062 and the “total H2S” value (strain L-3 [4]; sulphate as electron acceptor) was 2.5 and 3.3. The “final OD 580” value (strain L-3 [4]; [6]) was 0.1431 and 0.1137, the “initial OD 580” value (strain L-3 [4]; [6]) was 0.1083 and 0.0796 and the “total H2S” value (strain L-3 [4]; [6]) was 3.2 and 2.5. The “ability of the strain L-3 to degrade the substrate” value (strain L-3 [4]) was “capable of degrading”.

In the case of `c1ccc2ccccc2c1` [Naphthalene, naphthalene], the “sulphide production (OD 480) 0 d” value (Archaeoglobus fulgidus) is reported as 0.8 mM, the “sulphide production (OD 480) 10 d” value (Archaeoglobus fulgidus) is reported as 0.4 mM and 0.6 mM and 0.8 mM and the “sulphide production (OD 480) 45 d” value (Archaeoglobus fulgidus; 45 d) is reported as 0.8 mM and 1.1 mM and 1.4 mM. The “sulphide production (OD 480) 60 d” value (Archaeoglobus fulgidus) was 0.7 mM and 1.2 mM, the “sulphide production (OD 480) 70 d” value (Archaeoglobus fulgidus) was 1.3 mM and 1.7 mM and the H2S (Archaeoglobus fulgidus; [7]) was 1.3 mM and 1.7 mM. For the same compound, the ΔS tf-ti (Archaeoglobus fulgidus) was 0.5 mM and 0.9 mM, the “sulphide production (OD 480) 0 d” value (strain L-3 [2]) was 0.8 mM and 0.6 mM and the “sulphide production (OD 480) 10 d” value (strain L-3 [2]; 10 d) was 0.4 mM and 0.3 mM and 0.6 mM. For the same compound, the “sulphide production (OD 480) 45 d” value (strain L-3 [2]) was 0.9 mM and 1 mM and 0.8 mM, the “sulphide production (OD 480) 60 d” value (strain L-3 [2]) was 0.6 mM and 0.5 mM and the “sulphide production (OD 480) 70 d” value (strain L-3 [2]) was 1.7 mM and 1.3 mM and 1.1 mM. The H2S (strain L-3 [2]; [7]) was 1.3 mM and 1.1 mM, the “sulphide production (OD 480) 0 d” value (A. fulgidus; 0 d) was 0.2 mM and the “sulphide production (OD 480) 8 d” value (A. fulgidus; 8 d) was 0.8 mM and 0.4 mM and 0.5 mM. For the same compound, the “sulphide production (OD 480) 0 d” value (strain L-3 [5]; 0 d) was 0.2 mM (2×) and 0.3 mM, the “sulphide production (OD 480) 8 d” value (strain L-3 [5]; 8 d) was 0.5 mM and 0.4 mM and 0.6 mM and the “sulphide production (OD 480) 22 d” value (strain L-3 [5]; 22 d) was 0.9 mM and 0.5 mM and 0.8 mM. The “sulphide production (OD 480) 45 d” value (strain L-3 [5]; 45 d) was 0.9 mM and 0.7 mM and 1.3 mM and the ΔS tf-ti (strain L-3 [5]; final minus initial sulphide) was 0.7 mM and 0.5 mM and 1 mM.

For `c1ccc2c(c1)ccc1ccccc12` [Phenanthrene, phenanthrene], the “sulphide production (OD 480) 10 d” value (Archaeoglobus fulgidus) was 1.1 mM and 0.8 mM and 1.4 mM, the “sulphide production (OD 480) 60 d” value (Archaeoglobus fulgidus) was 0.8 mM and 0.5 mM and the ΔS tf-ti (Archaeoglobus fulgidus) was ≤ 0.5 mM. The “sulphide production (OD 480) 45 d” value (strain L-3 [2]) was 0.5 mM and 1 mM and 0.8 mM, the “sulphide production (OD 480) 60 d” value (strain L-3 [2]) was 0.4 mM and 0.5 mM and 0.3 mM and the “sulphide production (OD 480) 70 d” value (strain L-3 [2]) was 0.5 mM and 0.6 mM and 0.8 mM. For the same compound, the ΔS tf-ti (strain L-3 [2]; final minus initial sulphide) was ≤ 0.5 mM.
